In patent US10709708B2, “Method of treating cancer with a combination of MER tyrosine kinase inhibitor and an epidermal growth factor receptor (EGFR) inhibitor” (Emory University, priority 2016, dated 2020):
Read-outs that look alike come from different tables or passages of the source.

Experiments:
[1] = tested on: mutant EGFR NSCLC cells & EGFR TKI-resistant derivatives; assay: Viable cell counts of mutant EGFR NSCLC cells and EGFR TKI-resistant derivatives; type: cell-based; conditions: H1975, H1650 and AZD-9291 or erlotinib resistant derivatives
Method: The indicated cell lines are shown in FIG. 15A (H1975), FIG. 15B (H1650), FIG. 15C (H1975^AZD-R), and FIG. 15D (H1650^AZD-R).
The indicated cell lines are shown in FIG. 16A (H1975), FIG. 16B (H1650), FIG. 16C (H4011), FIG. 16D (H1975^AZD-R), FIG. 16E (H1650^AZD-R), and FIG. 16F (H1650^ERL-R).
NSCLC cells were cultured in the presence of the indicated compound(s) or an equivalent volume of vehicle (DMSO) only and the numbers of viable cells were counted at the indicated intervals using the Incucyte ZOOM live cell imaging system.

A549 cells = assay: Expansion of A549 cells in culture, Incucyte ZOOM live cell imaging; type: cell-based; conditions: for reduction of A549 cell number: agents alone or together at the same concentrations
[2] = tested on: wild-type EGFR NSCLC cell lines; assay: Cell counts of wild-type EGFR NSCLC cell lines after 60 hours; type: cell-based
Method: (§1) NSCLC and normal bronchial epithelial (BEAS2B) cell lines were cultured with CO-1686 for 60 hours and confluency was determined (BEAS2B) or cells were counted (NSCLC cell lines) and normalized to vehicle-controls.
The indicated NSCLC cell lines were treated with CO-1686 and/or MRX-2843 for 60 hours and cells were counted and normalized to vehicle controls.

[3] = tested on: mutant EGFR NSCLC cell lines; assay: Cell counts of mutant EGFR NSCLC cell lines; type: cell-based; conditions: mutant EGFR NSCLC cell lines (H1650, H4006, PC9, HCC827)
Method: as §1
For treatment with CO-1686, the cell lines are shown in FIG. 9A (H1650), FIG. 9B (H4006), and FIG. 9C (PC9). For treatment with AZD-9291, the cell lines are shown in FIG. 9D (H1650) and FIG. 9E (HCC827). The indicated NSCLC cell lines were treated with CO-1686, AZD-9291, and/or MRX-2843 and cells were counted every 2 hours.

[4] = tested on: mutant EGFR NSCLC cell lines; conditions: EGFR mutation incl. T790M (H1975); 1 μM; as reported by Walter; cited from earlier work
[5] = tested on: wild-type EGFR NSCLC cell lines; conditions: as reported by Walter; cited from earlier work
[6] = tested on: mutant forms of EGFR including T790M; conditions: Walter et al. 2013; cited from earlier work
A549 shMERTK cells = assay: Confluence of A549 shMERTK cells, Incucyte ZOOM live cell imaging; type: cell-based; conditions: A549 shMERTK cell line, CO-1686 vs vehicle
From the text: FIGS. 5A and 5B show inhibition of MERTK using shRNA sensitized A549 cells to CO-1686. FIG. 5A is an immunoblot showing decreased MERTK expression mediated by shRNA in A549 cells. […] FIG. 6A is an immunoblot showing decreased EGFR expression mediated by siRNA in A549 and […] cells.

## Clc1ccc(C2(c3ccc(-c4cn[nH]c4)cc3)CCNCC2)cc1 [AT7867]
[1]
  anti-tumor activity in combination with MRX-2843: synergistic anti-tumor activity

## C=CC(=O)Nc1cccc(Nc2nc(Nc3ccc(N4CCN(C(C)=O)CC4)cc3OC)ncc2C(F)(F)F)c1 [CO-1686, Rociletinib]
A549 cells; A549 cells
  reduction of A549 cell number: 20.9±5.7%
A549 cells; wild-type A549 cells, CO-1686 vs vehicle, confluence
  reduction in cell number: 9.9±2.89%
[2]; broad spectrum of wild-type EGFR NSCLC cell lines
  interaction with MRX-2843: synergizes
[2]; wild-type EGFR cell lines compared to mutant EGFR lines
  sensitivity of cell lines to CO-1686: resistant
[3]
  interaction with MRX-2843: synergize
[4]
  sensitivity of cell lines to CO-1686: clear sensitivity
[5]
  sensitivity of cell lines to CO-1686: resistant
[6]
  IC50: 21 nM
A549 shMERTK cells
  reduction in cell number: 23.4±0.22%

## CN1CCC(CNc2ccc3ncc(-c4cccc(OC(F)(F)F)c4)n3n2)CC1 [SGI-1776]
[1]
  anti-tumor activity in combination with MRX-2843: synergistic anti-tumor activity

## C=CC(=O)Nc1cc(Nc2nccc(-c3cn(C)c4ccccc34)n2)c(OC)cc1N(C)CCN(C)C [AZD-9291, Osimertinib]
A549 cells; A549 cells, combined with MRX-2843
  interaction with MRX-2843: synergized
[3]
  interaction with MRX-2843: synergize

## CN1CCN(Cc2ccc(-c3cn([C@H]4CC[C@H](O)CC4)c4nc(NCCC5CC5)ncc34)cc2)CC1 [MRX-2843]
A549 cells; A549 cells
  reduction of A549 cell number: 13.2±4.1%

## Nc1nc(Nc2ccc3c(c2)CCC(N2CCCC2)CC3)nn1-c1cc2c(nn1)-c1ccccc1CCC2 (stereo not drawn) [R428]
A549 cells; A549 cells, combined with CO-1686
  interaction with CO-1686: synergized
